Experimental data reported in US20030206968A1, “Fungicidal mixtures” (priority 1999, published 2003).

Experiments:
Type in all cases: in vivo
Botrytis cinerea = experiment: Field test, Botrytis cinerea in vines; settings: Example 33
Method: (§1) The trials are carried out under greenhouse (Examples 1 to 32) or field conditions (Examples 33 to 40) in residual or curative applications. The fungicides are applied in single treatments, or in a combination comprising an azolopyrimidine of formula I and a compound selected from the classes (A), (B) and (C) as defined above. The compounds are applied in form of an aqueous spray mix obtained from a concentrated formulation or the technical material.
(§2) For the field study formulated Azolopyrimidine A, B or C and formulated compounds from the classes (A), (B) and (C) were used.
(§3) Assessments of the diseases took place at the indicated day after the application of the compounds. Per cent infected leaf area infected was evaluated. The efficacy of the compounds/compounds mixtures to control the diseases was calculated by using the formula given above under item 4: […]
(§4) Synergy was calculated using the % disease control values of specific treatments for the two COLBY formula given hereinabove
The compounds are applied according to good agricultural practice in the form of an aqueous spray mix obtained from a concentrated formulation or the technical material at a rate of 400 l/ha. The disease control is evaluated according to the formula given for the greenhouse tests. […]

Rhynchosporium secalis = experiment: Greenhouse, Rhynchosporium secalis on barley, 1 day residual; settings: Example 8; dose rate 100 ppm
Method: as §1
(§5) 1. Seed is planted in 6 cm diameter plastic pots and maintained in the greenhouse.
2. When the primary leaf is fully expanded in the case of cereals or several leaves are present in the case of dicots, formulated test compounds are sprayed with a three nozzle overhead fungicide sprayer to near run-off. […]
4. Disease on the foliage as percent leaf area with disease symptoms/signs is evaluated about 7 days after inoculation. […]
as §3
Synergy was calculated using the % disease control values of specific treatments for the two COLBY formula given hereinabove […]

Pyrenophora teres = experiment: Greenhouse, Pyrenophora teres on barley, 1 day residual; settings: Example 10
Method: as §1, §5
(§6) 2. When the primary leaf is fully expanded in the case of cereals or several leaves are present in the case of dicots, formulated test compounds are sprayed with a three nozzle overhead fungicide sprayer to near run-off. Alternatively, a single nozzle overhead track sprayer is used for application of the compounds to cereals at a rate of 200 l/ha. Plants are then allowed to air-dry.
(§7) 3. Inoculation precedes treatment in the case of curative evaluations and follows treatment in case of residual evaluations. For inoculation of powdery mildew disease, plants are set up on greenhouse benches with bottom watering mats and inoculated by dusting them with conidia from infected plants. Between inoculation and treatment for curative evaluations and between treatment and inoculation for residual evaluations, plants are maintained in the greenhouse with bottom watering.
(§8) For inoculation of non-powdery mildew diseases, an aqueous spore suspension of the pathogen is applied to the plant and the plants are kept 1-2 days in a moist infection chamber before being returned to the greenhouse where they are maintained by bottom watering.
(§9) 4. Disease on the foliage as percent leaf area with disease symptoms/signs is evaluated about 7 days after inoculation. In the case of wheat, the tips and bases of the leaves are excluded from the evaluation. [formula]
(§10) 1. Technical compounds are formulated in a solvent/surfactant system consisting of 5% acetone and 0.05% Tween 20 in deionized water. Compounds are dissolved in acetone prior to addition of the water; the Tween 20 can be added through either the acetone or the water. Dilutions are made using the solvent/surfactant system. Formulated compounds are prepared using deionized water.
(§11) 2. Two kinds of controls are included: Plants treated with the solvent/surfactant solution and inoculated (Solvent Blank). Untreated plants which are inoculated (Inoculated Control).
as §3, §4
Fungicidal efficacy of the mixture of Azolopyrimidine C+metconazole (1 day residual) against Pyrenophora teres on barley The tank mix was obtained from a SC formulation containing 100 g Azolopyrimidine C per liter and an EC containing 100 g metconazole per liter.

Puccinia recondita [1] = experiment: Greenhouse, Puccinia recondita on wheat, 1 day residual; settings: Puccinia recondita, Example 11, read-out: Observed Efficacy
Text: as §1, with “The” for “The trials are carried out under greenhouse (Examples 1 to 32) or field conditions (Examples 33 to 40) in residual or curative applications. The”
as §5, §6, §7, §8, §9, §10, §11, §3, §4
Fungicidal efficacy of the mixture of Azolopyrimidine C+metconazole (1 day residual) against Puccinia recondita on wheat The tank mix was obtained from a SC formulation containing 100 g Azolopyrimidine C per liter and an EC containing 100 g metconazole per liter. […]
Fungicidal efficacy of the mixture of Azolopyrimidine C+fluazinam (1 day residual) against Puccinia recondita on wheat The tank mix was obtained from technical material of Azolopyrimidine C and a SC formulation containing 500 g fluazinam per liter. […]

Puccinia recondita [2] = experiment: Field test, Puccinia recondita on wheat; settings: metconazole 45 g/ha alone, 50 days after application
Method: as §1, §2, §3, §4
(§12) The compounds are applied according to good agricultural practice in the form of an aqueous spray mix obtained from a concentrated formulation or the technical material at a rate of 400 l/ha. The disease control is evaluated according to the formula given for the greenhouse tests.
(§13) Fungicidal efficacy of the mixture of Azolopyrimidine A and different cereal fungicides in the field against Puccinia recondita on wheat 50 days after application The tank mix was obtained from an SC formulation containing 100 g Azolopyrimidine A per liter and commercially available formulations of metconazole, epoxiconazole, propiconazole or kresoxim methyl, respectively.

Blumeria graminis = experiment: Field test, Blumeria graminis on wheat; settings: metconazole 45 g/ha alone, 15 days after application
Method: as §1, §2, §3, §4, §12
(§14) Fungicidal efficacy of the mixture of (S)-Azolopyrimidine C+cyproconazole in the field against Blumeria graminis on wheat 17 days after application The tank mix was obtained from a SC formulation containing 100 g (S)-Azolopyrimidine C per liter and an EC formulation containing 60 g cyproconazole per liter.
as §14, with “C+azoxystrobin” for “C+cyproconazole”, “a SC” for “an EC”, “250” for “60”, “azoxystrobin” for “cyproconazole”, “kg.” for “liter.”
as §13, with “Blumeria graminis” for “Puccinia recondita”, “15” for “50”, “epoxiconazole” for “epoxiconazole, propiconazole”

Septoria tritici [3] = experiment: Greenhouse, Septoria tritici on wheat, 1 day residual; settings: Example 9
Method: as §1, §5, §6, §7, §8, §9, §10, §11, §3, §4
Fungicidal efficacy of the mixture of Azolopyrimidine C+metconazole (1 day residual) against Septoria tritici on wheat The tank mix was obtained from a SC formulation containing 100 g Azoplopyrimidine C per liter and an EC containing 100 g metconazole per liter.

Septoria tritici [4] = experiment: Field test, Septoria tritici on wheat
Method: as §1, §2, §3, §4, §12
Fungicidal efficacy of the mixture of Azolopyrimidine C+metconazole in the field against Septoria tritici on wheat The tank mix was obtained from an EC formulation containing 150 g Azolopyrimidine C per liter and a SL formulation containing 60 g metconazole per liter. The observed and expected efficacies with different rates are given in Table XXXIVa (19 days after application) and Table XXXIVb (25 days after application):
Fungicidal efficacy of the mixture of (S)-Azolopyrimidine C+kresoxim methyl in the field against Septoria tritici on wheat The tank mix was obtained from a SC formulation containing 100 g (S)-Azolopyrimidine C per liter and a WG formulation containing 500 g kresoxim methyl per kg. The observed and expected efficacies with different rates are given in Tables XXXVa (7 days after application), XXXVb (22 days after application), XXXVc (34 days after application), and XXXVd (41 days after application):
as §13, with “fungicides” for “fungicides in”, “Septoria tritici” for “Puccinia recondita”, “15” for “50”, “epoxiconazole” for “epoxiconazole, propiconazole”, “propiconazole,” for “kresoxim methyl,”

Fc1cccc(Cl)c1-c1c(Cl)nc2ncnn2c1NCC(F)(F)F [Azolopyrimidine B, 5-chloro-6-(2-chloro-6-fluorophenyl)-7-(2,2,2-trifluoroethylamino)-[1,2,4]triazolo[1,5-a]pyrimidine]
Observed Efficacy (Botrytis cinerea; dose rate 250 g/ha): 58%

CC1(C)CCC(Cc2ccc(Cl)cc2)C1(O)Cn1cncn1 (stereo not shown) [metconazole]
Observed Efficacy (Rhynchosporium secalis): 87% | Observed Efficacy (Pyrenophora teres; dose rate 10 ppm): 4% | Observed Efficacy (Pyrenophora teres; dose rate 25 ppm): 9% | Observed Efficacy (Pyrenophora teres; dose rate 40 ppm): 34% | Observed Efficacy (Pyrenophora teres; dose rate 125 ppm): 68% | Observed Efficacy (Pyrenophora teres; dose rate 200 ppm): 73% | pest or weed control at 2 ppm (Puccinia recondita [1]; dose rate 2 ppm): 0% | pest or weed control at 8 ppm (Puccinia recondita [1]; dose rate 8 ppm): 0% | pest or weed control at 10 ppm (Puccinia recondita [1]; dose rate 10 ppm): 8% | pest or weed control at 25 ppm (Puccinia recondita [1]; dose rate 25 ppm): 14% | pest or weed control at 40 ppm (Puccinia recondita [1]; dose rate 40 ppm): 31% | pest or weed control at 50 ppm (Puccinia recondita [1]; dose rate 50 ppm): 72% | pest or weed control at 125 ppm (Puccinia recondita [1]; dose rate 125 ppm): 97% | Observed Efficacy (Puccinia recondita [2]): 75 | Observed Efficacy (Blumeria graminis): 54 | Observed Efficacy (Septoria tritici [3]; dose rate 2 ppm): 0% | Observed Efficacy (Septoria tritici [3]; dose rate 5 ppm): 0% | Observed Efficacy (Septoria tritici [3]; dose rate 8 ppm): 0% | Observed Efficacy (Septoria tritici [3]; dose rate 10 ppm): 0% | Observed Efficacy (Septoria tritici [3]; dose rate 25 ppm): 0% | Observed Efficacy (Septoria tritici [4]; Example 34, 19 days after application, dose rate 15 g/ha): 9% | Observed Efficacy (Septoria tritici [4]; Example 34, 19 days after application, dose rate 30 g/ha): 36% | Observed Efficacy (Septoria tritici [4]; Example 34, 19 days after application, dose rate 45 g/ha): 24% | Observed Efficacy (Septoria tritici [4]; Example 34, 25 days after application, dose rate 15 g/ha): 33% | Observed Efficacy (Septoria tritici [4]; Example 34, 25 days after application, dose rate 60 g/ha): 48% | Observed Efficacy (Septoria tritici [4]; metconazole 45 g/ha alone, 15 days after application, field, wheat): 77

Cc1cc(C)nc(Nc2ccccc2)n1 [pyrimethanil]
Observed Efficacy (Botrytis cinerea; dose rate 500 g/ha): 66%
